Laboratory results from US6432640B1, “P53-induced apoptosis” (priority 1997, dated 2002).

Legend:
Format in all cases: cell-based, human
[1] = test system: PIGs (p53-induced genes); experiment: PIG expression in DLD-1 cells (Northern blot); settings: for PIG induction by other inducers of ROS or apoptosis: DLD-1 cells
Procedure: (§1) Cells and RNA. All cell lines used in this study were obtained from the American Type Culture Collection and were cultured in McCoy's medium supplemented with 10% fetal bovine serum (FBS). Cells were infected with recombinant adenoviruses containing either the p53 gene or the β-galactosidase gene (26) at a multiplicity of infection of 10-100. RNA was purified from cells at various times after infection using the MessageMaker Kit (Gibco/BRL). Northern blot analysis was performed as described (26).
To determine the specificity of PIG expression for the p53-dependent apoptotic process, we performed experiments with other inducers of ROS or apoptosis.

[2] = test system: DLD-1 cells; experiment: ROS production in Ad-p53-infected cells (lucigenin chemiluminescence); settings: treated 12 hours after Ad-p53 infection
Procedure: (§2) Flow cytometry and other assays. Cells were collected with the aid of trypsin and incubated with CM-H2DCF-DA or NAO (Molecular Probes, Eugene, Oreg.) at concentrations of 10 and 0.4 μM, respectively, for 20 minutes at 37° C. prior to analysis by flow cytometry (14,15). To determine the fraction of apoptotic cells after various treatments, cells were stained with the DNA-binding dye H33258 and evaluated by fluorescence microscopy or flow cytometry as described (1). Superoxide production was assessed with lucigenin (29). In brief, 4-5×10^6 cells were collected with rubber policeman and resuspended in 1 ml of Earle's Balanced Salt Solution (Gibco BRL 14015-069, Life Technologies). Dark-adapted lucigenin (bis-N-methulacridinium nitrate, Sigma M8010) was added to the samples to a final concentration of 20 μM. Light emission was detected using a Berthold LB 9505C luminometer for 60 minutes at 37° C. Glutathione concentrations were measured using an assay kit purchased from Oxford Biomedical Res. Inc. according to the manufacturer's instructions. Caspase activation was assessed by cleavage of PARP (polyADP-ribose polymerase). Lysates from cells infected with Ad-p53 were Western blotted with an anti-PARP antibody, and the cleavage fragments were quantitated by densitometry (4). […]

[3] = test system: DLD-1 cells; experiment: Toxicity of inhibitor to cells at the dose used; settings: 100 μM
Procedure: Finally, we treated cells with bongkrekic acid (BA), a specific inhibitor of mitochondrial ATP translocase which can block the mitochondrial permeability transition pore opening thought to be required for ROS-dependent forms of apoptosis (13). […] BA was non-toxic at the dose used (100 μM). While BA inhibited the p53-apoptotic process dependent on ROS production, it had no effect on the p53-mediated growth arrest dependent on p21 as assessed by flow cytometry.

[4] = test system: DLD-1 cells; experiment: p53-mediated growth arrest dependent on p21 (flow cytometry)
Procedure: as §2

[5] = test system: DLD-1 cells; experiment: p53-induced apoptosis in Ad-p53-infected CRC cells (H33258 staining); settings: for block of apoptosis: inhibitor given at (up to) 8 hours following Ad-p53 infection, apoptosis at 24 hours
Procedure: as §1
Flow cytometry and other assays. Cells were collected with the aid of trypsin and incubated with CM-H2DCF-DA or NAO (Molecular Probes, Eugene, Oreg.) at concentrations of 10 and 0.4 μM, respectively, for 20 minutes at 37° C. prior to analysis by flow cytometry (14,15). To determine the fraction of apoptotic cells after various treatments, cells were stained with the DNA-binding dye H33258 and evaluated by fluorescence microscopy or flow cytometry as described (1). Superoxide production was assessed with lucigenin (29). In brief, 4-5×10^6 cells were collected with rubber policeman and resuspended in 1 ml of Earle's Balanced Salt Solution (Gibco BRL 14015-069, Life Technologies). Dark-adapted lucigenin (bis-N-methulacridinium nitrate, Sigma M8010) was added to the samples to a final concentration of 20 μM. Light emission was detected using a Berthold LB 9505C luminometer for 60 minutes at 37° C. Glutathione concentrations were measured using an assay kit purchased from Oxford Biomedical Res. Inc. according to the manufacturer's instructions. Caspase activation was assessed by cleavage of PARP (polyADP-ribose polymerase). Lysates from cells infected with Ad-p53 were Western blotted with an anti-PARP antibody, and the cleavage fragments were quantitated by densitometry (4).
To evaluate the patterns of gene expression following p53 expression, we employed SAGE, a technique which allows the quantitative evaluation of cellular mRNA populations (3). In brief, the method revolves around short sequence “tags” (11 bp), generated from defined positions within each mRNA molecule. Expression patterns are deduced from the abundance of individual tags. […] As previously shown, DLD-1 cells are among the ˜50% of CRC lines that undergo apoptosis in response to p53 (4). RNA was purified from cells 16 hours after infection, at least 8 hours before the onset of morphological signs of apoptosis.
To determine whether these steps were causally associated, we inhibited each step with specific pharmacologic agents and determined the effect of this inhibition on other components of the pathway.

[6] = test system: DLD-1 cells; experiment: Cell death by other inducers of apoptosis
Procedure: as §2

[7] = test system: DLD-1 cells; experiment: ROS by CM-DCF-DA and cardiolipin by NAO, flow cytometry
Procedure: FIG. 4A. DLD-1 cells were infected with Ad-p53 or control (Ad-lacZ) viruses and harvested after 27, 35, or 42 hours. Cells were incubated with CM-DCF-DA, a probe of ROS, or NAO, a probe of the mitochondrial membrane cardiolipin, and analyzed by flow cytometry. The mean fluorescence of the control cells is indicated by vertical lines in each box. The pro-oxidant drug menadione was used as a positive control to induce oxidative stress.
Flow cytometry and other assays. […] To determine the fraction of apoptotic cells after various treatments, cells were stained with the DNA-binding dye H33258 and evaluated by fluorescence microscopy or flow cytometry as described (1). Superoxide production was assessed with lucigenin (29). […] Light emission was detected using a Berthold LB 9505C luminometer for 60 minutes at 37° C. Glutathione concentrations were measured using an assay kit purchased from Oxford Biomedical Res. Inc. according to the manufacturer's instructions. Caspase activation was assessed by cleavage of PARP (polyADP-ribose polymerase). Lysates from cells infected with Ad-p53 were Western blotted with an anti-PARP antibody, and the cleavage fragments were quantitated by densitometry (4). […]

[8] = test system: PIG3; experiment: PIG3 induction by endogenous p53 in six CRC cancer cell lines
Procedure: as §1
As a further test of the p53-dependency of PIG3 induction, we determined whether PIG3 could be induced by endogenous p53 rather than through the exogenous Ad-p53 source. Six CRC cancer cell lines were each treated with adriamycin, a DNA-damaging and apoptotic-inducing agent known to increase endogenous p53 levels.

[9] = 100 μM, treated 12 hours after Ad-p53 infection

## CO[C@H](C/C=C\C=C\CC/C=C/C[C@H](C)/C=C/C(=C\C(=O)O)CC(=O)O)/C(C)=C\C=C(/C)C(=O)O [BA, bongkrekic acid]
[1]; [9]
  PIG3 expression: inhibit neither
[2]; 100 μM
  ROS production: inhibit neither
[3]
  toxicity at the dose used: non-toxic
[4]
  effect on p53-mediated growth arrest dependent on p21: no effect
[5]; [9]
  inhibition of subsequent apoptosis: 86-93%

## OO [hydrogen peroxide]
[1]
  PIG induction by other inducers of ROS or apoptosis: only p21 was induced

## ceramide
[1]
  PIG induction by other inducers of ROS or apoptosis: did not result in the expression of any PIG
[6]
  cell death: extensive cell death

## OC[C@H]1O[C@@H](n2cnc3cc(Cl)c(Cl)cc32)[C@H](O)[C@@H]1O [DRB, 5,6-dichlorobenimidizole riboside]
[1]; Ad-p53-infected cells, DRB at 8 hours following infection
  expression of PIGs: inhibit the expression of PIGs
[5]
  block of apoptosis: 83+/−3%

## COc1ccc2c(c1)c(CC(=O)O)c(C)n2C(=O)c1ccc(Cl)cc1 [indomethacin]
[1]
  PIG induction by other inducers of ROS or apoptosis: did not result in the expression of any PIG
[6]
  cell death: extensive cell death

## S=C(S)N1CCCC1 [PDTC, pyrrolidine dithiocarbamate]
[5]; p53-expressing cells treated with anti-oxidant
  block of apoptosis elicited by p53: able to block the apoptosis

## c1ccc2c(c1)[I+]c1ccccc1-2 [DPI, diphenyleneiodonium chloride]
[1]
  PIG3 production: did not inhibit
[2]; Homo sapiens, DLD-1, 25 μM, measured 12 hours later, three independent experiments
  inhibition at 25 µM: 71 to 85%
[5]; Homo sapiens, DLD-1, 25 μM, treated 12 hours after Ad-p53 infection, measured 12 hours later, three independent experiments
  inhibition at 25 µM: 73 to 77%

## CC1=CC(=O)c2ccccc2C1=O [menadione]
[1]
  PIG induction by other inducers of ROS or apoptosis: none were induced
[7]
  ROS (DCF fluorescence): increase in ROS

## C[C@@H]1C[C@@H]([C@H](O)CC2CC(=O)NC(=O)C2)C(=O)[C@@H](C)C1 [cycloheximide]
[5]
  block of apoptosis: 79%

## COc1cccc2c1C(=O)c1c(O)c3c(c(O)c1C2=O)C[C@@](O)(C(=O)CO)C[C@@H]3O[C@H]1C[C@H](N)[C@H](O)[C@H](C)O1 [adriamycin]
[8]; three CRC lines with mutant p53 genes
  PIG3 induction: not in the three lines with mutant p53 genes
[8]; three CRC lines with wild-type p53 genes
  PIG3 induction: strongly induced
